Experimental data reported in PubChem BioAssay AID1918991 (Molecular Pharmacology Branch, DTP, NCI, 2023).

System: 186277-243-T-J2-PDC complex spheroid growth
Assay: Anticancer human tumor 186277-243-T-J2-PDC patient-derived colon adenocarcinoma cell line growth inhibition [AhR]
Details: for IC50: curve of first compound; for viability, T/C: stronger effect = lower value; active = viability on the fitted dose curve at most 10% of control; inactive = the rest
Summary of the method: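 Agents were dosed in half-log steps down from roughly clinical Cmax, or from 10 microM where Cmax was unknown, alone and with AhR antagonists. Read-out: percent test/control growth of tumor spheroids containing HUVEC and MSC stromal cells.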

[1] = second compound 0.1 µM, first compound 0.0316 µM
[2] = second compound 0.1 µM, first compound 0.1 µM
[3] = second compound 0.1 µM, first compound 0.316 µM
[4] = second compound 0.1 µM, first compound 1 µM
[5] = second compound 0.316 µM, first compound 0.0316 µM
[6] = second compound 0.316 µM, first compound 0.1 µM
[7] = second compound 0.316 µM, first compound 0.316 µM
[8] = second compound 0.316 µM, first compound 1 µM
[9] = second compound 1 µM, first compound 0.0316 µM
[10] = second compound 1 µM, first compound 0.1 µM
[11] = second compound 1 µM, first compound 0.316 µM
[12] = second compound 1 µM, first compound 1 µM
[13] = second compound 3.16 µM, first compound 0.0316 µM
[14] = second compound 3.16 µM, first compound 0.1 µM
[15] = second compound 3.16 µM, first compound 0.316 µM
[16] = second compound 3.16 µM, first compound 1 µM
[17] = second compound 10 µM, first compound 0.0316 µM
[18] = second compound 10 µM, first compound 0.1 µM
[19] = second compound 10 µM, first compound 0.316 µM
[20] = second compound 10 µM, first compound 1 µM
[21] = second compound 0.1 µM, first compound 3.16 µM
[22] = second compound 0.1 µM, first compound 10 µM
[23] = second compound 0.316 µM, first compound 3.16 µM
[24] = second compound 0.316 µM, first compound 10 µM
[25] = second compound 1 µM, first compound 3.16 µM
[26] = second compound 1 µM, first compound 10 µM
[27] = second compound 3.16 µM, first compound 3.16 µM
[28] = second compound 3.16 µM, first compound 10 µM
[29] = second compound 10 µM, first compound 3.16 µM
[30] = second compound 10 µM, first compound 10 µM
[31] = second compound 0.1 µM, first compound 0.00949 µM
[32] = second compound 0.1 µM, first compound 0.03 µM
[33] = second compound 0.1 µM, first compound 0.0949 µM
[34] = second compound 0.1 µM, first compound 0.3 µM
[35] = second compound 0.316 µM, first compound 0.00949 µM
[36] = second compound 0.316 µM, first compound 0.03 µM
[37] = second compound 0.316 µM, first compound 0.0949 µM
[38] = second compound 0.316 µM, first compound 0.3 µM
[39] = second compound 1 µM, first compound 0.00949 µM
[40] = second compound 1 µM, first compound 0.03 µM
[41] = second compound 1 µM, first compound 0.0949 µM
[42] = second compound 1 µM, first compound 0.3 µM
[43] = second compound 3.16 µM, first compound 0.00949 µM
[44] = second compound 3.16 µM, first compound 0.03 µM
[45] = second compound 3.16 µM, first compound 0.0949 µM
[46] = second compound 3.16 µM, first compound 0.3 µM
[47] = second compound 10 µM, first compound 0.00949 µM
[48] = second compound 10 µM, first compound 0.03 µM
[49] = second compound 10 µM, first compound 0.0949 µM
[50] = second compound 10 µM, first compound 0.3 µM
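Also: spheroids exposed to compounds for seven days before the viability read.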
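For viability, T/C in this document: luminescent signal used as a stand-in for viable cell amount; 100% = DMSO vehicle control wells.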

CC1COCCN1c1cc(-c2ccnn2C)c2ccnc(-c3ccn[nH]3)c2n1 (stereo not given) + Cc1cncc(-c2nc(NCCc3c[nH]c4ccccc34)c3ncn(C(C)C)c3n2)c1
active: viability, T/C [3] 7.55% | viability, T/C [4] 3.82% | viability, T/C [7] 8.4% | viability, T/C [8] 4.07% | viability, T/C [11] 7.76% | viability, T/C [12] 5.82% | viability, T/C [15] 9.02% | viability, T/C [16] 5.27% | viability, T/C [18] 6.13% | viability, T/C [19] 3.4% | viability, T/C [20] 2.65%
0.0809 µM: IC50 (second compound 1 µM)
0.0793 µM: IC50 (second compound 0.316 µM)
inactive: viability, T/C (second compound 0.1 µM, first compound 0.00316 µM) 99% | viability, T/C (second compound 0.1 µM, first compound 0.01 µM) 106% | viability, T/C [1] 112% | viability, T/C [2] 36.4% | viability, T/C (second compound 0.316 µM, first compound 0.00316 µM) 97.4% | viability, T/C (second compound 0.316 µM, first compound 0.01 µM) 106% | viability, T/C [5] 122% | viability, T/C [6] 35.2% | viability, T/C (second compound 1 µM, first compound 0.00316 µM) 107% | viability, T/C (second compound 1 µM, first compound 0.01 µM) 90% | viability, T/C [9] 119% | viability, T/C [10] 37.4% | viability, T/C (second compound 3.16 µM, first compound 0.00316 µM) 95.3% | viability, T/C (second compound 3.16 µM, first compound 0.01 µM) 105% | viability, T/C [13] 116% | viability, T/C [14] 29% | viability, T/C (second compound 10 µM, first compound 0.00316 µM) 25.3% | viability, T/C (second compound 10 µM, first compound 0.01 µM) 26.8% | viability, T/C [17] 13.8%
0.0729 µM: IC50 (second compound 3.16 µM)
0.0798 µM: IC50 (second compound 0.1 µM)
< 0.00316 µM: IC50 (second compound 10 µM)

CC1COCCN1c1cc(C2(S(C)(=N)=O)CC2)nc(-c2ccnc3[nH]ccc23)n1 (stereo not given) + Cc1cncc(-c2nc(NCCc3c[nH]c4ccccc34)c3ncn(C(C)C)c3n2)c1
3.99 µM: IC50 (second compound 0.316 µM)
active: viability, T/C [22] 6.76% | viability, T/C [24] 7.2% | viability, T/C [26] 7.29% | viability, T/C [28] 8.1% | viability, T/C [30] 5.52%
4.07 µM: IC50 (second compound 0.1 µM)
2.9 µM: IC50 (second compound 3.16 µM)
3.72 µM: IC50 (second compound 1 µM)
inactive: viability, T/C [1] 85.5% | viability, T/C [2] 119% | viability, T/C [3] 91.6% | viability, T/C [4] 99.5% | viability, T/C [21] 62% | viability, T/C [5] 96.8% | viability, T/C [6] 97.2% | viability, T/C [7] 87.3% | viability, T/C [8] 106% | viability, T/C [23] 60.9% | viability, T/C [9] 95.4% | viability, T/C [10] 106% | viability, T/C [11] 97.3% | viability, T/C [12] 106% | viability, T/C [25] 57.1% | viability, T/C [13] 105% | viability, T/C [14] 105% | viability, T/C [15] 102% | viability, T/C [16] 105% | viability, T/C [27] 45.5% | viability, T/C [17] 79.2% | viability, T/C [18] 79% | viability, T/C [19] 70.1% | viability, T/C [20] 60.6% | viability, T/C [29] 18.6%
1.3 µM: IC50 (second compound 10 µM)

COc1ccc([C@@H](O)c2cc(-c3ncnc4cc(N5CCOCC5)ccc34)c(F)cc2Cl)nn1 + Cc1cncc(-c2nc(NCCc3c[nH]c4ccccc34)c3ncn(C(C)C)c3n2)c1
inactive: viability, T/C [1] 103% | viability, T/C [2] 102% | viability, T/C [3] 104% | viability, T/C [4] 116% | viability, T/C [21] 94.2% | viability, T/C [22] 66.2% | viability, T/C [5] 109% | viability, T/C [6] 102% | viability, T/C [7] 98.3% | viability, T/C [8] 104% | viability, T/C [23] 114% | viability, T/C [24] 64.4% | viability, T/C [9] 103% | viability, T/C [10] 103% | viability, T/C [11] 113% | viability, T/C [12] 113% | viability, T/C [25] 99.4% | viability, T/C [26] 68.7% | viability, T/C [13] 94% | viability, T/C [14] 107% | viability, T/C [15] 115% | viability, T/C [16] 106% | viability, T/C [27] 101% | viability, T/C [28] 55.7% | viability, T/C [17] 23.3% | viability, T/C [18] 21.7% | viability, T/C [19] 20.6% | viability, T/C [20] 26% | viability, T/C [29] 16.6% | viability, T/C [30] 13.2%
> 10 µM: IC50 (second compound 0.1 µM) | IC50 (second compound 0.316 µM) | IC50 (second compound 1 µM) | IC50 (second compound 3.16 µM)
< 0.0316 µM: IC50 (second compound 10 µM)

Nc1ncn(C2CC(O)C(CO)S2)c(=O)n1 (stereo not given) + Cc1cncc(-c2nc(NCCc3c[nH]c4ccccc34)c3ncn(C(C)C)c3n2)c1
> 0.3 µM: IC50 (second compound 0.1 µM) | IC50 (second compound 0.316 µM) | IC50 (second compound 1 µM) | IC50 (second compound 3.16 µM) | IC50 (second compound 10 µM)
inactive: viability, T/C (second compound 0.1 µM, first compound 0.000949 µM) 102% | viability, T/C (second compound 0.1 µM, first compound 0.003 µM) 91.9% | viability, T/C [31] 95.1% | viability, T/C [32] 129% | viability, T/C [33] 148% | viability, T/C [34] 104% | viability, T/C (second compound 0.316 µM, first compound 0.000949 µM) 89.5% | viability, T/C (second compound 0.316 µM, first compound 0.003 µM) 89.4% | viability, T/C [35] 104% | viability, T/C [36] 109% | viability, T/C [37] 140% | viability, T/C [38] 105% | viability, T/C (second compound 1 µM, first compound 0.000949 µM) 98.2% | viability, T/C (second compound 1 µM, first compound 0.003 µM) 107% | viability, T/C [39] 107% | viability, T/C [40] 140% | viability, T/C [41] 140% | viability, T/C [42] 115% | viability, T/C (second compound 3.16 µM, first compound 0.000949 µM) 92.2% | viability, T/C (second compound 3.16 µM, first compound 0.003 µM) 89.9% | viability, T/C [43] 90% | viability, T/C [44] 106% | viability, T/C [45] 121% | viability, T/C [46] 98.4% | viability, T/C (second compound 10 µM, first compound 0.000949 µM) 79.5% | viability, T/C (second compound 10 µM, first compound 0.003 µM) 80.2% | viability, T/C [47] 71.8% | viability, T/C [48] 76.9% | viability, T/C [49] 70.9% | viability, T/C [50] 63.3%

O=C(C=Cn1cnc(-c2cc(C(F)(F)F)cc(C(F)(F)F)c2)n1)NNc1cnccn1 + Cc1cncc(-c2nc(NCCc3c[nH]c4ccccc34)c3ncn(C(C)C)c3n2)c1
active: viability, T/C (second compound 0.1 µM, first compound 3 µM) 4.12% | viability, T/C (second compound 0.316 µM, first compound 0.949 µM) 13.6% | viability, T/C (second compound 0.316 µM, first compound 3 µM) 4.58% | viability, T/C (second compound 1 µM, first compound 3 µM) 5.33% | viability, T/C [50] 7.78% | viability, T/C (second compound 10 µM, first compound 0.949 µM) 3.76% | viability, T/C (second compound 10 µM, first compound 3 µM) 3.02%
inactive: viability, T/C [31] 103% | viability, T/C [32] 111% | viability, T/C [33] 114% | viability, T/C [34] 67.2% | viability, T/C (second compound 0.1 µM, first compound 0.949 µM) 13.3% | viability, T/C [35] 110% | viability, T/C [36] 105% | viability, T/C [37] 124% | viability, T/C [38] 73.2% | viability, T/C [39] 109% | viability, T/C [40] 123% | viability, T/C [41] 123% | viability, T/C [42] 75.2% | viability, T/C (second compound 1 µM, first compound 0.949 µM) 15.4% | viability, T/C [43] 117% | viability, T/C [44] 116% | viability, T/C [45] 127% | viability, T/C [46] 60.1% | viability, T/C (second compound 3.16 µM, first compound 0.949 µM) 15.1% | viability, T/C (second compound 3.16 µM, first compound 3 µM) 6.75% | viability, T/C [47] 67.5% | viability, T/C [48] 60.2% | viability, T/C [49] 21.6%
0.38 µM: IC50 (second compound 3.16 µM)
0.456 µM: IC50 (second compound 0.316 µM)
0.43 µM: IC50 (second compound 0.1 µM)
0.482 µM: IC50 (second compound 1 µM)
0.0404 µM: IC50 (second compound 10 µM)
